Data from patent US7939495B2, “Method for improving skin conditions” (Caregen Co., Ltd, priority 2005, dated 2011).

Key:
NIH-3T3 cell = assay: stability in 50 mM Tris-HCl at 37° C., residual activity by MTT assay; type: physicochemical; settings: 50 mM Tris-HCl pH 8.0, 37° C., days 0-100, relative to day 0, FIG. 5
Procedure: To evaluate stability of the purified acetyl decapeptide of Example 10, the decapeptide and acetyl decapeptide were dissolved in 50 mM Tris-HCl (pH 8.0) to a concentration of 10 μg/ml. A recombinant bFGF produced E. coli (Sigma-Aldrich) was prepared as a control in the same buffer to a concentration of 1 μg/ml. The prepared solutions were introduced into glass vials and kept to stand at 37° C. Afterwards, the solutions were taken on days 0, 1, 10, 25, 50, 75 and 100 and subjected to MTT assay (Scudiero, D. A., et al. Cancer Res. 48:4827-4833 (1988)) using NIH-3T3 cell (Korean Cell Line Bank) to determine residual activities of peptides and bFGF (FIG. 5). The results were given as relative values to the activity (100%) of sample taken on day 0.

Balb C mice = assay: hair-growth activity after DHT treatment; type: in vivo; settings: observed on day 19 after hair removal; DHT 8 days, then 10 days treatment or none
From the text: The hairs of the back portions of Balb C mice were removed and a hair loss-inducing substance, dihydrotestosterone (DHT, TCI Inc.) was applied for 8 days to induce […] stage before the proliferation of kerationcytes.

[1] = system: receptor of basic fibroblast growth factor; assay: competitive binding assay with 125I-labeled bFGF on BHK cells; parameters: species or system hamster; settings: FIG. 3
Procedure: To examine the binding potency of the purified acetyl-decapepetide of Example 10 to the receptor of basic fibroblast growth factor, the competitive binding assay was carried out using baby hamster kidney cells (BHK, the Korean Cell Line Bank) and ^125I-labeled bFGF (Amersham) according to process proposed by Baird et al. (Baird, et al., Proc. Natl. Acad. Sci. USA, 85:2324-2328 (1988)). Cells were cultured in 48-well plates for tissue culture and washed with cold Ham's F12 medium containing 0.2% gelatin (Sigma-Aldrich). 200 fmol of ^125I-bFGF and 1-100 nmol of acetyl decapeptide were dissolved in 200 μl of buffer and incubated with cells for 2 hr. Following the collection of cells by centrifugation, the cell membranes were isolated using 0.1% Triton X-100 and the radioactivity of ^125I-bFGF bound to receptors on cell membrane was determined using a gamma scintillation counter (Packard, U.S.A) (FIG. 3).

hyaluronic acid = hyaluronic acid level in HaCaT cells (Hyaluronic acid ELISA kit); type: cell-based, human; settings: 1 μmole, FIG. 9
Procedure: (§1) Furthermore, HaCaT cell line was treated with the acetyl-decapeptide of this invention (1 μg/ml) and the level of procollagen, one of indicators to show the improvement in skin wrinkle, was examined (FIG. 8). The level of procollagen was measured using Procollagen ELISA kit (Takara). For verifying effects on levels of laminin and hyaluronic acid, another indicator representing the improvement in skin wrinkle, HaCaT cell line was incubated with the acetyl-decapeptide of this invention (1 μmole) and levels of laminin and hyaluronic acid were measured using Laminin ELISA kit (CHEMICON, USA) and Hyaluronic acid ELISA kit (Echelon Biosciences Inc, USA), respectively (FIG. 9).

HaCaT keratinocytes = assay: SRB colorimetric assay of HaCaT keratinocyte growth; type: cell-based, human; settings: 10 ng/ml or 1,000 ng/ml, 72 hr, FIGS. 6 and 7
Procedure: To analyze effects of peptides of this invention on proliferation of keratinocytes, SRB (Sulforhodamine B) calorimetric assay was carried out using HaCaT kerationcyte according to Rizzino et al method (Rizzino, et al. Cancer Res., 48:4266 (1988)). HaCaT ketatinocytes (The Korean Cell Line Bank) were cultured in 250 ml-flasks containing EMEM (Eagle's minimal essential media, Gibco, U.S.A.) supplemented with […] (fetal bovine serum). HaCaT ketatinocytes cultured were treated with 0.25% trypsin solution to detach cells from the bottom of culture flasks and centrifuged to collect cell pellets. Cells were resuspended in EMEM not containing FBS, its aliquot (4×10^3) cells was added to each well of 96-well plates and cultured under 7% CO2 for 24 hr at 37° C. After 24-hr culture, the medium was changed with a fresh medium not containing serum and cells were incubated with bFGF or the acetyl-decapeptide of Example 10 (10 ng/ml or 1,000 ng/ml) dissolved in 10% DMSO for 72 hr under the same conditions as described above. After removing supernatants, cells were washed once using PBS (phosphate buffered saline) and incubated with SRB solution (Sigma-Aldrich). Cells were washed with PBS and observed under a microscope to find cell viability. In addition, absorbance at 590 nm was measured to analyze cell proliferation (FIG. 6). […]

3T3 fibroblast = assay: [3H]-thymidine incorporation in 3T3 fibroblast; type: cell-based; settings: 3T3 cells, 2 ng/ml serially diluted two-fold, FIG. 4
Procedure: The biological activities of the purified acetyl-decapepetide of Example 10 were evaluated using 3T3 fibroblast (The Korean Cell Line Bank) according to Rizzino et al method to measure [^3H]-thymidine incorporation (Rizzino, et al. Cancer Res., 48:4266 (1988)). 3T3 cells were cultured in 250 ml-flasks containing EMEM (Eagle's minimal essential media, Gibco, U.S.A.) supplemented with […] (fetal bovine serum). 3T3 cells cultured were treated with 0.25% trypsin solution to detach cells from the bottom of culture flasks and centrifuged to collect cell pellets. Cells were resuspended in EMEM not containing FBS, its aliquot, 2×10^4 cells/0.3 ml medium was added to each well of 24-well plates and cultured under 7% CO2 for 24 hr at 37° C. 2 ng/ml of the acetyl decapeptide of this invention was serially diluted by two-fold using EMEM containing 0.2 (w/v) % bovine serum albumin and 0.3 ml of the diluted peptide was added to each well, followed by additional culturing under 7% CO2 for 6 hr at 37° C. Afterwards, 0.5 μCi of [^3H]-thymidine (Amersham, TRK 686, 68 Ci/mmol) was added to each well and incubated overnight. […] The dried filters were added along with 2 ml of scintillation cocktail to scintillation vials and allowed to stand for 30 min at room temperature, after which radioactivity incorporated into cells was determined using a scintillation counter (Beckman, U.S.A).

procollagen = procollagen level in HaCaT cells (Procollagen ELISA kit); type: cell-based, human; settings: 1 μg/ml, FIG. 8
Procedure: as §1

laminin = laminin level in HaCaT cells (Laminin ELISA kit); type: cell-based, human; settings: 1 μmole, FIG. 9
Procedure: as §1

decapeptide: unprotected bFGF-derived decapeptide, presumably the amino acid sequence of SEQ ID NO:1 (YRSRKYTSWY) (peptide having functions and actions of basic fibroblast growth factor)
residual activity over time (stability) (NIH-3T3 cell): not to be decreased over time

C[C@]12CCC(=O)C[C@@H]1CC[C@@H]1[C@@H]2CC[C@]2(C)[C@@H](O)CC[C@@H]12 [DHT, dihydrotestosterone]
hair growth (Balb C mice): hair growth was barely observed

recombinant bFGF: recombinant bFGF produced E. coli (Sigma-Aldrich), prepared as a control
residual activity over time (stability) (NIH-3T3 cell): sharply decreased with the lapse of time

Ac-YRSRKYTSWY-OH [acetyl decapeptide]
binding to bFGF receptor in competition with 125I-bFGF ([1]; 200 fmol 125I-bFGF, 1-100 nmol peptide, 2 hr): binds to bFGF receptor in a competitive manner with bFGF
binding potency to bFGF receptor [1]: higher binding potency
level of hyaluronic acid (hyaluronic acid): induce the elevation of levels of laminin and hyaluronic acid
cell viability / proliferation of HaCaT keratinocytes (HaCaT keratinocytes): much higher cell viability than control
[3H]-thymidine incorporation into fibroblasts (3T3 fibroblast): promotes thymidine incorporation into fibroblasts in a dose-dependent fashion
level of procollagen in cells (procollagen): increased in a time-dependent manner
level of laminin (laminin): induce the elevation of levels of laminin and hyaluronic acid
residual activity over time (stability) (NIH-3T3 cell): excellent stability
